Columns and labels:
[1] = Toxicokinetic evaluation of 14 days of repeated intragastric administration to SD rats; type: in vivo
Description: SD rats were used as the test animals. After intragastric administration of the test compounds to the SD rats, the concentrations of the original forms of the compounds in the plasma and the administration solutions were measured by the LC/MS/MS method at different time points.
Twenty-four SD rats, with an equal number of males and females, were evenly divided into 6 groups, each consisting of 4 rats with an equal number of males and females. The rats were provided by Vital River Laboratory Animal Technology Co., Ltd.
A certain amount of compound MYK-461 was weighed out, and 0.5% MC was added to prepare a colorless clear solution.
Compound MYK-461 was administered at doses of 0.5 mg/kg, 1.5 mg/kg, and 3 mg/kg, each with a volume of 10 mL/kg.
0.2-mL blood samples were collected from the orbit at 0.5 h, 1.0 h, 2.0 h, 4.0 h, 8.0 h, and 24.0 h after administration on day 1, and 0.2-mL blood samples were collected from the orbit before administration and at 0.5 h, 1.0 h, 2.0 h, 4.0 h, 8.0 h, and 24.0 h after administration on day 7 and day 14. The blood samples were placed into EDTA-K2 anticoagulation tubes and centrifuged at 10,000 rpm for 1 min (4° C.), and the plasma was isolated within 1 h and stored at −20° C. before analysis. The procedure starting from the blood collection to the centrifugation was performed under ice-bath conditions. Two hours after administration, food was provided. […]

myosin ATPase = target: T1, myosin ATPase (Bos taurus, UniProt Q9BE39); conditions: biological evaluation in Application No. WO2022105852; cited from earlier work
T1 construct: 0.07 μM myosin motor protein SI fragment; purchased Cytoskeleton CS-MYS03 (myosin S1); AD99 (actin)
T1 sequence (Q9BE39 85-778 limits assumed): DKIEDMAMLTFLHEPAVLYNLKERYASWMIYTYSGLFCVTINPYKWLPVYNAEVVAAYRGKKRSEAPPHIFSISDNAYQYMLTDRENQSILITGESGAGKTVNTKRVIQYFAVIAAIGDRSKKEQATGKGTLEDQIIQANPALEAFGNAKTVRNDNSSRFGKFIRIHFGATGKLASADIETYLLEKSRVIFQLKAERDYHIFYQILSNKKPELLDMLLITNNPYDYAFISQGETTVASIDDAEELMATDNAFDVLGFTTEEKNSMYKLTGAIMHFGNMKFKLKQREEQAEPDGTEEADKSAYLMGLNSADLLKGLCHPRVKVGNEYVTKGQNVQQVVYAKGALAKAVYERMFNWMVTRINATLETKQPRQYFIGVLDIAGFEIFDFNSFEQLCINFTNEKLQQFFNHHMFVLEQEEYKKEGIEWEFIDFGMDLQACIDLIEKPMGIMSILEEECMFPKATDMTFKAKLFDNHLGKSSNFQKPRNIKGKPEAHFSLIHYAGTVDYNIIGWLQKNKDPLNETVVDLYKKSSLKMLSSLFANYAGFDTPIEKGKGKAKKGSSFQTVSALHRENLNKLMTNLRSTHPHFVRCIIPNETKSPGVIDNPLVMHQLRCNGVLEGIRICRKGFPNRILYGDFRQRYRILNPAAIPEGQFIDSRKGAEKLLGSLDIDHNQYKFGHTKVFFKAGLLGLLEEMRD
T1 sequence (P85100 whole entry partner, the tested form may be a part): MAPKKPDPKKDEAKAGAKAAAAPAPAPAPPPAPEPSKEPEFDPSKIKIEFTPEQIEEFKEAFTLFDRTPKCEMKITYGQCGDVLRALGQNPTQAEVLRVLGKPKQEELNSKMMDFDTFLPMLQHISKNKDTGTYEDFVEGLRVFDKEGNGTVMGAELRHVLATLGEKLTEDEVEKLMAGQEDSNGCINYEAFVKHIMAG

## Cc1ccc(F)c([C@H](C)Nc2nc(=O)n(C3CCOCC3)c(=O)[nH]2)c1 [(S)-6-((1-(2-Fluoro-5-methylphenyl)ethyl)amino)-3-(tetrahydro-2H-pyran-4-yl)-1,3,5-triazine-2,4(1H,3H)-dione]
[1]
  accumulation in the SD rats: did not cause significant accumulation
Myosin ATPase
  inhibitory effect on myosin ATPase: very good inhibitory effect

From patent publication US20250326743A1, “CRYSTAL FORMS OF TRIAZINE DIONE DERIVATIVE AND PREPARATION METHOD THEREFOR” (Jiangsu Hengrui Pharmaceuticals Co., Ltd., priority 2022, published 2025)
